Measurements reported in patent US20160257697A1, “THIOPHENE-SUBSTITUTED TETRACYCLIC COMPOUNDS AND METHODS OFUSE THEREOF FOR THE TREATMENT OF VIRAL DISEASES” (priority 2013, published 2016).
Read-outs that look alike come from different tables or passages of the source.

What was measured:
Assay in all cases: microbe, parasite or virus in culture
Type in all cases: cell-based, Hepatitis C virus (HCV)
Details in all cases: Replicon Assay A
HCV replicon 1AY93H = tested on: HCV replicon 1AY93H
How it was run: (§1)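 Compound is added to replicon cells plated at 2000 cells/well (0.5% DMSO, 5% FBS). After 3 days the cells are washed and lysed, and HCV RNA and cyclophilin mRNA are quantified by multiplex RT-PCR against a standard curve of known replicon total RNA.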

HCV replicon 2B = tested on: HCV replicon 2B
How it was run: as §1

HCV replicon 1A = tested on: HCV replicon 1A
How it was run: as §1

[1] = Hepatitis C virus, read-out: 1A Y93H IC50 (nM), replicon 1AY93H
[2] = Hepatitis C virus, read-out: 2B IC50 (nM), replicon 2B
[3] = read-out: 1A Y93H IC50, HCV replicon 1A Y93H
[4] = read-out: 2B IC50, HCV replicon 2B
[5] = Hepatitis C virus, read-out: 1A Y93H IC50, HCV replicon 1A Y93H
[6] = Hepatitis C virus, read-out: 2B IC50, HCV replicon 2B
[7] = Hepatitis C virus, HCV replicon 1A
[8] = read-out: 1A Y93H IC50, replicon 1AY93H

Row | SMILES | IC50 (HCV replicon 2B; [4]) [nM] | IC50 (HCV replicon 1A; HCV replicon 1A) [nM] | IC50 (HCV replicon 1AY93H; [8]) [nM] | IC50 (HCV replicon 2B; read-out: 2B IC50, replicon 2B) [nM] | IC50 (HCV replicon 1A; replicon 1A) [nM] | further results
1 | COC(=O)N[C@H](C(=O)N1CCC[C@H]1c1ncc(-c2cc(F)c3c(c2)OC(c2ccc(C4CC4)s2)n2c-3c(F)c3cc(-c4cnc([C@@H]5CCCN5C(=O)[C@@H](NC(=O)OC)C(C)C)[nH]4)ccc32)[nH]1)C(C)C (single isomer, unassigned) [Compound 73] | – | – | – | – | – | IC50 (HCV replicon 1AY93H; [1]): 2.26 nM; IC50 (HCV replicon 2B; [2]): 5.14 nM; IC50 (HCV replicon 1A; Hepatitis C virus, replicon 1A): 0.0016 nM
2 | COC(=O)N[C@H](C(=O)N1CCC[C@H]1c1ncc(-c2cc(F)c3c(c2)OC(c2cc(C)c(C)s2)n2c-3cc3cc(-c4cnc([C@@H]5C[C@@H](F)CN5C(=O)[C@@H](NC(=O)OC)C(C)C)[nH]4)ccc32)[nH]1)C(C)C (single isomer, unassigned) [Compound 514] | 48.5 | 0.0474 | – | – | – | IC50 (HCV replicon 1AY93H; [3]): 0.272 nM
3 | COC(=O)N[C@H](C(=O)N1C[C@H](F)C[C@H]1c1nc(-c2ccc3c(c2)cc2n3C(c3cc(C)c(C)s3)Oc3cc(-c4cnc([C@@H]5C[C@@H](F)CN5C(=O)[C@@H](NC(=O)OC)C(C)C)[nH]4)ccc3-2)c[nH]1)C(C)C (mixture of isomers) [Compound 711] | – | – | – | – | – | IC50 (HCV replicon 1AY93H; [5]): 0.12 nM; IC50 (HCV replicon 2B; [6]): 0.029 nM; IC50 (HCV replicon 1A; [7]): 0.027 nM
4 | COC(=O)NC(C(=O)N1CCC[C@H]1c1ncc(-c2cc(F)c3c(c2)OC(c2ccc(C4CC4)s2)n2c-3cc3cc(-c4cnc([C@@H]5CCCN5C(=O)[C@@H](NC(=O)OC)C(C)C)[nH]4)ccc32)[nH]1)C1CCOC(C)(C)C1 (single isomer, unassigned) [Compound 212] | – | – | 6.07 | 8.59 | 0.0681 | –
5 | COC(=O)N[C@H](C(=O)N1CCC[C@H]1c1ncc(-c2cc(F)c3c(c2)OC(c2cc4c(s2)C(C)(C)CC4)n2c-3cc3cc(-c4cnc([C@@H]5CCCN5C(=O)[C@@H](NC(=O)OC)C(C)C)[nH]4)ccc32)[nH]1)C(C)C (single isomer, unassigned) [Compound 392] | – | – | – | – | 0.0038 | IC50 (HCV replicon 1AY93H; [1]): 0.0514 nM; IC50 (HCV replicon 2B; [2]): 0.373 nM
6 | COC(=O)N[C@H](C(=O)N1CCC[C@H]1c1ncc(-c2cc(F)c3c(c2)OC(c2cc4c(s2)CCCC4)n2c-3cc3cc(-c4cnc([C@@H]5CCCN5C(=O)[C@@H](NC(=O)OC)C(C)C)[nH]4)ccc32)[nH]1)C(C)C (single isomer, unassigned) [Compound 55] | – | – | – | – | – | IC50 (HCV replicon 1AY93H; [1]): 3.26 nM; IC50 (HCV replicon 2B; [2]): 2.53 nM; IC50 (HCV replicon 1A; Hepatitis C virus, replicon 1A): 0.0019 nM
7 | COC(=O)N[C@H](C(=O)N1CCC[C@H]1c1ncc(-c2cc(F)c3c(c2)OC(c2ccc(C4CCCCC4)s2)n2c-3cc3cc(-c4cnc([C@@H]5CCCN5C(=O)[C@@H](NC(=O)OC)C(C)C)[nH]4)ccc32)[nH]1)C(C)C (single isomer, unassigned) [Compound 530] | 0.488 | 0.0131 | – | – | – | IC50 (HCV replicon 1AY93H; [5]): 0.0499 nM
8 | COCc1ccc(C2Oc3cc(-c4cnc([C@@H]5CCCN5C(=O)[C@@H](NC(=O)OC)C(C)C)[nH]4)cc(F)c3-c3cc4cc(-c5cnc([C@@H]6CCCN6C(=O)[C@@H](NC(=O)OC)[C@@H]6C[C@@H](C)O[C@@H](C)C6)[nH]5)ccc4n32)s1 (single isomer, unassigned) [Compound 535] | 0.0736 | 0.00895 | – | – | – | IC50 (HCV replicon 1AY93H; [3]): 0.0295 nM
9 | COC(=O)N[C@H](C(=O)N1CCC[C@H]1c1nc(-c2ccc3c(c2)OC(c2ccc(C4CC4)s2)n2c-3cc3cc(-c4c[nH]c([C@@H]5CCCN5C(=O)[C@@H](NC(=O)OC)C5CCOCC5)n4)ccc32)c[nH]1)C1CCOCC1 (mixture of isomers) [Compound 728] | – | – | – | – | – | IC50 (HCV replicon 1AY93H; [5]): 0.02 nM; IC50 (HCV replicon 2B; [6]): 0.022 nM; IC50 (HCV replicon 1A; [7]): 0.022 nM
10 | CCc1ccc(C2Oc3cc(-c4cnc([C@@H]5CCCN5C(=O)[C@@H](NC(=O)OC)C(C)C)[nH]4)cc(F)c3-c3cc4cc(-c5cnc([C@@H]6CCCN6C(=O)C(NC(=O)OC)C6CCOC(C)(C)C6)[nH]5)ccc4n32)s1 (single isomer, unassigned) [Compound 153] | – | – | 0.422 | 0.51 | 0.0021 | –
11 | CCc1ccc(C2Oc3cc(-c4cnc([C@@H]5CCCN5C(=O)[C@@H](NC(=O)OC)C(C)C)[nH]4)cc(F)c3-c3cc4cc(-c5cnc([C@@H]6C[C@@H](F)CN6C(=O)C(NC(=O)OC)C6CCOC(C)(C)C6)[nH]5)ccc4n32)s1 (single isomer, unassigned) [Compound 254] | – | – | 0.12 | 3.49 | 0.0011 | –
12 | COC(=O)N[C@H](C(=O)N1CCC[C@H]1c1nc(-c2ccc3c(c2)OC(c2ccc(C)s2)n2c-3cc3cc(-c4c[nH]c([C@@H]5NCCN5C(=O)[C@@H](NC(=O)OC)C(C)C)n4)ccc32)c[nH]1)C(C)C (single isomer, unassigned) [Compound 700] | 0.39 | 0.015 | – | – | – | IC50 (HCV replicon 1AY93H; [3]): 1.17 nM
13 | COC(=O)N[C@H](C(=O)N1C[C@H](F)C[C@H]1c1ncc(-c2ccc3c(c2)OC(c2cc(C)c(C)s2)n2c-3cc3cc(-c4c[nH]c([C@@H]5C[C@@H](F)CN5C(=O)[C@@H](NC(=O)OC)C5CCOCC5)n4)ccc32)[nH]1)C(C)C (mixture of isomers) [Compound 725] | – | – | – | – | – | IC50 (HCV replicon 1AY93H; [5]): 0.058 nM; IC50 (HCV replicon 2B; [6]): 0.76 nM; IC50 (HCV replicon 1A; [7]): 0.035 nM
14 | COC(=O)N[C@H](C(=O)N1CCC[C@H]1c1ncc(-c2cc(C)c3c(c2)OC(c2cc(C)c(C)s2)n2c-3cc3cc(-c4cnc([C@@H]5CCCN5C(=O)[C@@H](NC(=O)OC)C(C)C)[nH]4)ccc32)[nH]1)C(C)C (single isomer, unassigned) [Compound 15] | – | – | 18.1 | 2.28 | – | IC50 (HCV replicon 1A; Hepatitis C virus, replicon 1A): 0.0029 nM
15 | CCc1ccc(C2Oc3cc(-c4cnc([C@@H]5CCCN5C(=O)C(NC(=O)OC)C5CCOC(C)(C)C5)[nH]4)cc(F)c3-c3cc4cc(-c5cnc([C@@H]6CCCN6C(=O)C(NC(=O)OC)C6CCOC(C)(C)C6)[nH]5)ccc4n32)s1 (single isomer, unassigned) [Compound 292] | – | – | 0.044 | 0.106 | 0.0027 | –
16 | CCc1ccc(C2Oc3cc(-c4cnc([C@@H]5CCCN5C(=O)[C@@H](NC(=O)OC)C(C)C)[nH]4)cc(F)c3-c3cc4cc(-c5cnc([C@@H]6CCCN6C(=O)C(NC(=O)OC)C6CCOC(C)(C)C6)[nH]5)ccc4n32)s1 (single isomer, unassigned) [Compound 149] | – | – | 25.9 | 24.8 | 0.129 | –
17 | COC(=O)N[C@H](C(=O)N1C2CC2C[C@H]1c1ncc(-c2cc(F)c3c(c2)OC(c2ccc(C4CC4)s2)n2c-3cc3cc(-c4cnc([C@@H]5CCCN5C(=O)[C@@H](NC(=O)OC)C5C[C@@H](C)O[C@@H](C)C5)[nH]4)ccc32)[nH]1)C(C)C (single isomer, unassigned) [Compound 555] | 0.197 | 0.00239 | – | – | – | IC50 (HCV replicon 1AY93H; [3]): 0.105 nM
18 | CC[C@@H]1CC(C(NC(=O)OC)C(=O)N2CCC[C@H]2c2ncc(-c3ccc4c(c3)cc3n4C(c4ccc(C5CC5)s4)Oc4cc(-c5cnc([C@@H]6CCCN6C(=O)[C@@H](NC(=O)OC)C(C)C)[nH]5)cc(F)c4-3)[nH]2)C[C@H](CC)O1 (single isomer, unassigned) [Compound 287] | – | – | 0.074 | 0.49 | 0.0082 | –
19 | COC(=O)N[C@H](C(=O)N1CCC[C@H]1c1ncc(-c2cc(F)c3c(c2)OC(c2cc4c(s2)CCC4)n2c-3cc3cc(-c4cnc([C@@H]5C[C@H]6C[C@H]6N5C(=O)[C@@H](NC(=O)OC)C5C[C@@H](C)O[C@@H](C)C5)[nH]4)ccc32)[nH]1)C(C)C (single isomer, unassigned) [Compound 552] | 0.409 | 0.00978 | – | – | – | IC50 (HCV replicon 1AY93H; [3]): 0.839 nM
20 | COC(=O)NC(C(=O)N1CCCC1c1ncc(-c2cc(F)c3c(c2)OC(c2ccc(CC(C)(C)OC)s2)n2c-3cc3cc(-c4cnc(C5CCCN5C(=O)C(NC(=O)OC)C5CCOC(C)(C)C5)[nH]4)ccc32)[nH]1)C(C)C (single isomer, unassigned) [Compound 850] | – | 0.0028 | – | – | – | IC50 (HCV replicon 1AY93H; HCV replicon 1A Y93H, read-out: 1A Y93H IC50): 0.855 nM; IC50 (HCV replicon 2B; HCV replicon 2B, read-out: 2B IC50): 0.375 nM
21 | COC(=O)N[C@H](C(=O)N1CCC[C@H]1c1ncc(-c2cc(F)c3c(c2)OC(c2cc4c(s2)CCC(C)(C)O4)n2c-3cc3cc(-c4cnc([C@@H]5CCCN5C(=O)[C@@H](NC(=O)OC)C(C)C)[nH]4)ccc32)[nH]1)C(C)C (single isomer, unassigned) [Compound 398] | – | – | 0.955 | 0.494 | 0.0015 | –
22 | COC(=O)N[C@H](C(=O)N1CCC[C@H]1c1ncc(-c2ccc3c(c2)OC(c2ccc(C4CC4)s2)n2c-3c(F)c3cc(-c4cnc([C@@H]5C[C@H]6C[C@H]6N5C(=O)[C@@H](NC(=O)OC)C(C)C)[nH]4)ccc32)[nH]1)C(C)C (single isomer, unassigned) [Compound 612] | 2.21 | 0.0016 | – | – | – | IC50 (HCV replicon 1AY93H; [3]): 0.469 nM
23 | COC(=O)NC(C(=O)N1[C@@H]2C[C@@H]2C[C@H]1c1ncc(-c2ccc3c(c2)c(F)c2n3C(c3ccc(C4CC4)s3)Oc3cc(-c4cnc([C@@H]5CCCN5C(=O)[C@@H](NC(=O)OC)C(C)C)[nH]4)cc(F)c3-2)[nH]1)C1CCOC(C)(C)C1 (single isomer, unassigned) [Compound 423] | 0.0096 | 0.0021 | – | – | – | IC50 (HCV replicon 1AY93H; [3]): 0.0042 nM
24 | COC(=O)N[C@H](C(=O)N1CCC[C@H]1c1ncc(-c2cc(F)c3c(c2)OC(c2ccc(C4CC4)s2)n2c-3cc3cc(-c4cnc([C@@H]5CCCN5C(=O)[C@@H](NC(=O)OC)C(C)C)[nH]4)ccc32)[nH]1)C(C)C (mixture of isomers) [Compound 510] | – | – | – | – | – | IC50 (HCV replicon 1AY93H; [5]): 0.0979 nM; IC50 (HCV replicon 2B; [6]): 0.0488 nM; IC50 (HCV replicon 1A; [7]): 0.00793 nM
25 | COC(=O)N[C@H](C(=O)N1CCC[C@H]1c1ncc(-c2cc(F)c3c(c2)OC(c2sc(C4CC4)cc2C)n2c-3cc3cc(-c4cnc([C@@H]5CCCN5C(=O)[C@@H](NC(=O)OC)C(C)C)[nH]4)ccc32)[nH]1)C(C)C (single isomer, unassigned) [Compound 328] | – | – | 2.8 | 1.73 | – | IC50 (HCV replicon 1A; Hepatitis C virus, replicon 1A): 0.001 nM
